Earlier results, collected in US7687487B2, “Camptothecin-analog with a novel, “flipped” lactone-stable, E-ring and methods for making and using same” (BioNumerik Pharmaceuticals, Inc., priority 2007, dated 2010).
“Also recorded” adds a separate entry of the source. Read-outs that look alike come from different tables or passages of the source.

Legend:
[1] = system: advanced malignant melanoma; settings: fifteen patients
[2] = 24 hours after administration, once daily for 5 days, 6.5-20 mg/m^2/day
gastrointestinal cancer = settings: after 2 months (8 or 9 weeks)
[3] = not given; remark: listed apart in the source
tumors by Tumor Type = settings: et al
[4] = for Toxicity: et al, * Dose Limiting Toxicity
[5] = versus lactone form

CC[C@@]1(O)C(=O)OCc2c1cc1n(c2=O)Cc2cc3ccccc3nc2-1 [CPT sodium]
50% or greater decrease in tumor diameter ([1]; 90-360 mg/m^2 every 2 weeks): None of the patients
myelosuppression ([1]; 90-360 mg/m^2 every 2 weeks): 11 patients
less pronounced transient tumor regression ([1]; no clinical benefit associated): three patients
relation of plasma CPT levels to dose [2]: little relation to the dose given
Cystitis (% of 27 Patients) (5-Day Course, P < 0.05): 48 (P < 0.05) %
Cystitis (% of 34 Patients) (Single Dose method of administration): 24%
persistence of diarrhea (higher doses): ≤ 4 weeks
onset of cystitis after treatment (in vivo): 7 to 10 days
patients with partial objective improvement (gastrointestinal cancer): only two of their 61 patients
bladder toxicity ([3]; doses of 20 to 30 mg/m^2): dose limiting in three patients
most prominent non-hematologic toxic effect ([3]; fifteen patients, 20-67 mg/m^2 weekly, intravenous push): Cystitis

CCc1c2c(nc3ccc(OC(=O)N4CCC(N5CCCCC5)CC4)cc13)-c1cc3c(c(=O)n1C2)COC(=O)[C@]3(O)CC [CPT-11, 7-ethyl-10-[4-(1-piperidino)-1-piperidino]carbonyloxy camptothecin]
Tumor Type: Breast, responses (tumors by Tumor Type; Clavel, 37 Pts.): (1 PR)
Tumor Type: Mesothelioma, responses (tumors by Tumor Type; Clavel, 37 Pts.): (1 PR)
Tumor Type: Esophagus, responses (tumors by Tumor Type; Culine, 59 Pts.): (1 PR) cervix
Tumor Type: Ovarian, responses (tumors by Tumor Type; Culine, 59 Pts.): (1 PR)
Tumor Type: cervix, responses (tumors by Tumor Type; Culine, 59 Pts.): (1 PR) renal
Tumor Type: renal, responses (tumors by Tumor Type; Culine, 59 Pts.): (1 PR)
Tumor Type: NS CLC, responses (tumors by Tumor Type; Negoro, 17 Pts.): (2 PRs)
Tumor Type with responses (tumors by Tumor Type; Ohe, 36 Pts.): None
Tumor Type: Colon Ca, responses (tumors by Tumor Type; Rothenberg, 32 Pts.): (2 PRs)
Tumor Type: Cervix Ca, responses (tumors by Tumor Type; Rowinsky, 32 Pts.): (1 PR)
Tumor Type: Colon Cancer, responses (tumors by Tumor Type; Rowinsky, 32 Pts.): (1 PR)
Toxicity ([4]; Clavel, 90 min. QDx 3 Q21 Days, 37 Pts., 115 mg/m^2/d (33-115)): neutropenia*; also recorded: diarrhea,; also recorded: vomiting,
Toxicity ([4]; Ohe, 120 hr CI Q3 wks, 36 Pts., 40 mg/m^2/d (5-40)): diarrhea*; also recorded: vomiting,; also recorded: thrombocytopenia; also recorded: Anemia; also recorded: liver
major reported dose-limiting toxicities ([4]; Phase I clinical trials summarised in Table VII): Neutropenia and diarrhea

CC[C@@](O)(C(=O)O)c1cc2n(c(=O)c1CO)Cc1cc3ccccc3nc1-2 [carboxylate form of CPT]
reduction of anti-tumor activity [5]: at least 10 fold
